Data: publication PMC7450046, “Making of water soluble curcumin to potentiate conventional antimicrobials by inducing apoptosis-like phenomena among drug-resistant bacteria” (Scientific Reports, 2020)
Converted amounts (≈) assume the structure as drawn. Where two headings read alike, the source gives them in different places. Each block holds one compound with its values, some of them ahead of it.

How the values were obtained:
[1] = tested on: Pseudomonas aeruginosa (2,412/2019); assay: MIC/MBC, broth micro-dilution; format: cell-based; conditions: for MIC: 18 h
Method: (§1) The minimum inhibitory concentration of sCur was determined by the broth microdilution method as described earlier with minor modifications.
(§2) Briefly, Staphylococcus aureus, Staphylococcus epidermidis, Klebsiella pneumoniae, Escherichia coli, and Pseudomonas aeruginosa were grown in 10 ml BHI broth aerobically for 18 h. Bacterial culture (500 µl) was then diluted to 1.5 ml fresh BHI broth. […] The stock was diluted in a series of two-fold dilutions ranging from 0.5 to 512 µg/ml in sterile BHI broth in microtiter wells. Each well of the 96-well microtiter plate was then inoculated with 190 µl of standardized cell suspension (10^5 CFU/ml) and incubated at 37 °C for next 18 h along with the 20 µl sCur suspension. The MIC was defined as the lowest concentration of sCur at which no obvious growth was observed.

[2] = tested on: Klebsiella pneumoniae (10,825/2019); assay: MIC/MBC, broth micro-dilution; format: cell-based; conditions: for MIC: 18 h
Method: as §1, §2

[3] = tested on: Staphylococcus aureus (MRSA, 2,862/2019); assay: MIC/MBC, broth micro-dilution; format: cell-based; conditions: for MIC: 18 h
Method: as §1, §2

[4] = tested on: Escherichia coli (507/2019); assay: MIC/MBC, broth micro-dilution; format: cell-based; conditions: for MIC: 18 h
Method: as §1, §2

[5] = tested on: Gram-positive and Gram-negative MDR isolates; assay: MIC, broth micro-dilution, summary for MDR isolates; format: cell-based
Method: as §1, §2

[6] = tested on: Klebsiella pneumoniae (ATCC700603); assay: MIC/MBC, broth micro-dilution; format: cell-based; conditions: for MIC: ATCC700603, 18 h
Method: as §1
(§3) Briefly, Staphylococcus aureus, Staphylococcus epidermidis, Klebsiella pneumoniae, Escherichia coli, and Pseudomonas aeruginosa were grown in 10 ml BHI broth aerobically for 18 h. Bacterial culture (500 µl) was then diluted to 1.5 ml fresh BHI broth. The sCur stock solution (1,024 µg/ml) was used for the study. The stock was diluted in a series of two-fold dilutions ranging from 0.5 to 512 µg/ml in sterile BHI broth in microtiter wells. Each well of the 96-well microtiter plate was then inoculated with 190 µl of standardized cell suspension (10^5 CFU/ml) and incubated at 37 °C for next 18 h along with the 20 µl sCur suspension. The MIC was defined as the lowest concentration of sCur at which no obvious growth was observed. Positive controls were having either ciprofloxacin or meropenem (for gram positive and gram negative respectively) while the sterile broth served as negative control and all the experiments were performed in triplicate.

[7] = tested on: Pseudomonas aeruginosa (ATCC25619); assay: MIC/MBC, broth micro-dilution; format: cell-based; conditions: for MIC: ATCC25619, 18 h
Method: as §1, §3

[8] = tested on: Staphylococcus aureus (ATCC29213); assay: MIC/MBC, broth micro-dilution; format: cell-based; conditions: for MIC: ATCC29213, 18 h
Method: as §1, §3

[9] = tested on: Escherichia coli (ATCC25922); assay: MIC/MBC, broth micro-dilution; format: cell-based; conditions: for MIC: ATCC25922, 18 h
Method: as §1, §3

[10] = tested on: Staphylococcus epidermidis (ATCC35984); assay: MIC/MBC, broth micro-dilution; format: cell-based; conditions: for MIC: ATCC35984, 18 h
Method: as §1, §3

Klebsiella pneumoniae [11] = assay: DiSC3-5 flow cytometry, membrane depolarization; conditions: 256 µg/ml
Klebsiella pneumoniae [12] = assay: DPH flow cytometry, membrane dynamics; format: cell-based; conditions: 256 µg/ml
[13] = tested on: Pseudomonas aeruginosa (2,412/2019); assay: Modified MIC in combination, checkerboard titration; format: cell-based
Method: (§4) Serial dilutions of with these antibiotics were mixed in cation-adjusted Muller Hinton broth. The inoculum was prepared from the overnight grown colonies on MHA. The final bacterial concentration after inoculation was […].

[14] = tested on: Klebsiella pneumoniae (10,825/2019); assay: as above; format: cell-based
Method: as §4

[15] = tested on: Escherichia coli (507/2019); assay: as above; format: cell-based
Method: as §4

Klebsiella pneumoniae [16] = assay: DCFH-DA flow cytometry, ROS production; format: cell-based; conditions: single agents, time not stated; untreated 0.1%
[17] = tested on: S. aureus and K. pneumoniae cells; assay: Hydroxyl radical estimation with HPF dye; format: cell-based, Staphylococcus aureus and Klebsiella pneumoniae; conditions: one hour treatment, compared to untreated cells
Method: The fluorescent reporter dye 3′-(p-hydroxyphenyl) fluorescein (HPF) was used for […] free radical detection as described previously. Overnight cultures were diluted 1:250 with 25 ml of BHI broth in 250 ml flasks and incubated at 37 °C, with shaking (200 rpm). Cells were grown until they reached the OD600 ~ 0.3. Five hundred microliters sample was taken from the flasks and transferred to an 8-well plate for treatments. […] The supernatant was exchanged with phosphate buffered saline supplemented with […] HPF with incubation in the dark at room temperature for 15 min and re-pelleted by centrifugation at 10,000 rpm. The supernatant was removed and replaced with 1 × PBS for fluorimetry measurements.

[18] = tested on: multi-drug resistant K. pneumoniae and S. aureus isolates; assay: DiSC3-5 steady-state fluorimetry, membrane depolarization; format: cell-based, Klebsiella pneumoniae and Staphylococcus aureus; conditions: 8 µg/ml sCur with 16 µg/ml vancomycin, 120 min; vancomycin alone; untreated 18.67 ± 2.082
MRSA clinical isolate = assay: DPH steady-state fluorimetry, membrane dynamics; format: cell-based, Staphylococcus aureus; conditions: vancomycin alone; 8 µg/ml sCur with 16 µg/ml vancomycin 60 min; untreated 89.86 ± 2.07
Method: (§5) We utilized the previously described method. Multidrug-resistant clinical isolates of Staphylococcus aureus, Staphylococcus epidermidis, Klebsiella pneumoniae, Escherichia coli, and Pseudomonas aeruginosa were treated with MIC concentration of sCur, vancomycin, and in combination (here data of only Klebsiella pneumoniae is shown). We incubated the treated cells for 120 min with shaking (100 rpm) at 37 °C, with subsequent harvesting. The pellet was re-suspended and re-pelleted. We fixed the pellet with 0.4% paraformaldehyde with subsequent resuspension in PBS. We later on incubated the re-suspended cells with 0.5 mM 1, 6-diphenyl-1, 3, 5-hexatriene (DPH) at 37 °C for 60 min, pelleted and washed thrice with PBS. The fluorescence intensity was monitored spectrophotometrically employing Synergy H1 Hybrid Multi-Mode Reader at 350 nm (excitation) and 425 nm (emission).

[19] = tested on: Staphylococcus aureus (MRSA, 2,862/2019); assay: microbe, parasite or virus in culture
Method: as §4

[20] = tested on: K. pneumoniae clinical isolate; assay: DPH steady-state fluorimetry, membrane dynamics; format: cell-based, Klebsiella pneumoniae; conditions: vancomycin alone; sCur at MIC alone 120 min; 8 µg/ml sCur with 16 µg/ml vancomycin 60 min; untreated 93.44 ± 2.646
Method: as §5

[21] = antibiotic with native curcumin (8 µg/ml)

MIC ([5]; MDR isolates, antibiotics alone, read-out: MIC): 64 µg/mL (≈ 193 µM)
MIC ([6]; read-out: MIC): 0.5 µg/mL (≈ 1.51 µM)
MIC ([7]; read-out: MIC): 0.5 µg/mL (≈ 1.51 µM)
MIC ([8]; read-out: MIC): 0.25 µg/mL (≈ 0.754 µM)
MIC ([9]; read-out: MIC): 0.25 µg/mL (≈ 0.754 µM)
MIC ([10]; read-out: MIC): < 0.25 µg/mL
Compound: O=C(O)c1cn(C2CC2)c2cc(N3CCNCC3)c(F)cc2c1=O [Ciprofloxacin, ciprofloxacin]
MBC ([1]; read-out: MBC): 256 µg/mL (≈ 773 µM)
MBC ([2]; read-out: MBC): 128 µg/mL (≈ 386 µM)
MBC ([3]; read-out: MBC): 64 µg/mL (≈ 193 µM)
MBC ([4]; read-out: MBC): 64 µg/mL (≈ 193 µM)
MBC ([6]; ATCC700603, read-out: MBC): 1 µg/mL (≈ 3.02 µM)
MBC ([7]; ATCC25619, read-out: MBC): 1 µg/mL (≈ 3.02 µM)
MBC ([8]; ATCC29213, read-out: MBC): 0.5 µg/mL (≈ 1.51 µM)
MBC ([9]; ATCC25922, read-out: MBC): 0.5 µg/mL (≈ 1.51 µM)
MBC ([10]; ATCC35984, read-out: MBC): 0.5 µg/mL (≈ 1.51 µM)

MIC ([1]; read-out: MIC): ≥ 1020 µg/mL
MIC ([2]; read-out: MIC): 512 µg/mL (≈ 1390 µM)
MIC ([3]; read-out: MIC): 256 µg/mL (≈ 695 µM)
MIC ([4]; read-out: MIC): 512 µg/mL (≈ 1390 µM)
MIC ([6]; read-out: MIC): 256 µg/mL (≈ 695 µM)
MIC ([7]; read-out: MIC): 512 µg/mL (≈ 1390 µM)
MIC ([8]; read-out: MIC): 128 µg/mL (≈ 347 µM)
MIC ([9]; read-out: MIC): 256 µg/mL (≈ 695 µM)
MIC ([10]; read-out: MIC): 128 µg/mL (≈ 347 µM)
Compound: COc1cc(/C=C/C(=O)CC(=O)/C=C/c2ccc(O)c(OC)c2)ccc1O [Curcumin, curcumin]
MBC ([1]; read-out: MBC): ≥ 1020 µg/mL
MBC ([2]; read-out: MBC): ≥ 1020 µg/mL
MBC ([3]; read-out: MBC): ≥ 1020 µg/mL
MBC ([4]; read-out: MBC): ≥ 1020 µg/mL
right shifting of the population, DiSC3-5 (Klebsiella pneumoniae [11]): 35%
right shifting of the population, DPH (Klebsiella pneumoniae [12]): significant right shifting
MBC ([6]; ATCC700603, read-out: MBC): ≥ 1020 µg/mL
MBC ([7]; ATCC25619, read-out: MBC): ≥ 1020 µg/mL
MBC ([8]; ATCC29213, read-out: MBC): ≥ 1020 µg/mL
MBC ([9]; ATCC25922, read-out: MBC): ≥ 1020 µg/mL
MBC ([10]; ATCC35984, read-out: MBC): ≥ 1020 µg/mL

MIC ([4]; read-out: MIC): 64 µg/mL (≈ 167 µM)
modified MIC ([13]; antibiotic with sCur (8 µg/ml)): 4 µg/mL
modified MIC ([14]; antibiotic with sCur (8 µg/ml)): 2 µg/mL
modified MIC [15, 21]: 64 µg/mL
modified MIC ([15]; antibiotic with sCur (8 µg/ml)): 1 µg/mL
MIC ([6]; read-out: MIC): 0.5 µg/mL (≈ 1.3 µM)
MIC ([7]; read-out: MIC): 0.5 µg/mL (≈ 1.3 µM)
MIC ([9]; read-out: MIC): 0.25 µg/mL (≈ 0.652 µM)
Compound: C[C@@H](O)[C@H]1C(=O)N2C(C(=O)O)=C(S[C@@H]3CN[C@H](C(=O)N(C)C)C3)[C@H](C)[C@H]12 [Meropenem, meropenem]
MBC ([1]; read-out: MBC): 256 µg/mL (≈ 668 µM)
MBC ([2]; read-out: MBC): 256 µg/mL (≈ 668 µM)
MBC ([6]; ATCC700603, read-out: MBC): 1 µg/mL (≈ 2.61 µM)
MBC ([7]; ATCC25619, read-out: MBC): 1 µg/mL (≈ 2.61 µM)
MBC ([9]; ATCC25922, read-out: MBC): 1 µg/mL (≈ 2.61 µM)

Compound: CN[C@H](CC(C)C)C(=O)N[C@H]1C(=O)N[C@@H](CC(N)=O)C(=O)N[C@H]2C(=O)N[C@H]3C(=O)N[C@H](C(=O)N[C@H](C(=O)O)c4cc(O)cc(O)c4-c4cc3ccc4O)[C@H](O)c3ccc(c(Cl)c3)Oc3cc2cc(c3O[C@@H]2O[C@H](CO)[C@@H](O)[C@H](O)[C@H]2O[C@H]2C[C@](C)(N)[C@H](O)[C@H](C)O2)Oc2ccc(cc2Cl)[C@H]1O [Vancomycin, vancomycin]
MBC [1]: ≥ 1020 µg/mL
MIC [1]: 1020 µg/mL (≈ 707 µM)
MBC [2]: ≥ 1020 µg/mL
MIC [2]: 512 µg/mL (≈ 353 µM)
MBC [3]: 2 µg/mL (≈ 1.38 µM)
MIC [3]: 1 µg/mL (≈ 0.69 µM)
MBC [4]: ≥ 1020 µg/mL
MIC [4]: 512 µg/mL (≈ 353 µM)
MIC [5]: 512 µg/mL (≈ 353 µM)
right shifting of the population, DiSC3-5 (Klebsiella pneumoniae [11]): 0.6%
modified MIC [13, 21]: 1024 µg/mL
modified MIC ([13]; antibiotic with sCur (8 µg/ml)): 16 µg/mL
modified MIC [14, 21]: 512 µg/mL
modified MIC ([14]; antibiotic with sCur (8 µg/ml)): 16 µg/mL
modified MIC [15, 21]: 512 µg/mL
modified MIC ([15]; antibiotic with sCur (8 µg/ml)): 8 µg/mL
cell population that took up DCFDA, ROS generation (gate M3) (Klebsiella pneumoniae [16]): 38.6%
HPF fluorescence, OH radical production [17]: fair increase in the fluorescence
right shifting of the population, DPH (Klebsiella pneumoniae [12]): mild right shifting
DiSC3-5 fluorescence intensity [18]: 32.07 ± 5.224 a.u.
MBC ([6]; ATCC700603): ≥ 1020 µg/mL
MIC [6]: 256 µg/mL (≈ 177 µM)
MBC ([7]; ATCC25619): ≥ 1020 µg/mL
MIC [7]: 1020 µg/mL (≈ 707 µM)
MBC ([8]; ATCC29213): 2 µg/mL (≈ 1.38 µM)
MIC [8]: 0.5 µg/mL (≈ 0.345 µM)
MBC ([9]; ATCC25922): ≥ 1020 µg/mL
MIC [9]: 256 µg/mL (≈ 177 µM)
MBC ([10]; ATCC35984): 1 µg/mL (≈ 0.69 µM)
MIC [10]: 0.25 µg/mL (≈ 0.173 µM)
DPH fluorescence intensity (MRSA clinical isolate): 84.24 ± 1.875 a.u.
MIC ([19]; read-out: Modified MIC): 1 µg/mL (≈ 0.69 µM)
MIC ([19]; read-out: modified MIC): 0.25 µg/mL (≈ 0.173 µM)
DPH fluorescence intensity [20]: 89.21 ± 2.614 a.u.
